Patent publication US20230026271A1, “Piperazine Compounds for Inhibiting CPS1” (Eisai R&D Management Co., Ltd., priority 2019, published 2023)

Target: T1, CPS1 (Homo sapiens, UniProt P31327)
T1 construct: The full length, human CPS1 gene was cloned into pFastBac HTA; His6 (from the pFastBac HTA vector); made in house; host or cells: SF21 insect cells (baculovirus, Bac-to-bac)
T1 sequence (P31327 39-1500): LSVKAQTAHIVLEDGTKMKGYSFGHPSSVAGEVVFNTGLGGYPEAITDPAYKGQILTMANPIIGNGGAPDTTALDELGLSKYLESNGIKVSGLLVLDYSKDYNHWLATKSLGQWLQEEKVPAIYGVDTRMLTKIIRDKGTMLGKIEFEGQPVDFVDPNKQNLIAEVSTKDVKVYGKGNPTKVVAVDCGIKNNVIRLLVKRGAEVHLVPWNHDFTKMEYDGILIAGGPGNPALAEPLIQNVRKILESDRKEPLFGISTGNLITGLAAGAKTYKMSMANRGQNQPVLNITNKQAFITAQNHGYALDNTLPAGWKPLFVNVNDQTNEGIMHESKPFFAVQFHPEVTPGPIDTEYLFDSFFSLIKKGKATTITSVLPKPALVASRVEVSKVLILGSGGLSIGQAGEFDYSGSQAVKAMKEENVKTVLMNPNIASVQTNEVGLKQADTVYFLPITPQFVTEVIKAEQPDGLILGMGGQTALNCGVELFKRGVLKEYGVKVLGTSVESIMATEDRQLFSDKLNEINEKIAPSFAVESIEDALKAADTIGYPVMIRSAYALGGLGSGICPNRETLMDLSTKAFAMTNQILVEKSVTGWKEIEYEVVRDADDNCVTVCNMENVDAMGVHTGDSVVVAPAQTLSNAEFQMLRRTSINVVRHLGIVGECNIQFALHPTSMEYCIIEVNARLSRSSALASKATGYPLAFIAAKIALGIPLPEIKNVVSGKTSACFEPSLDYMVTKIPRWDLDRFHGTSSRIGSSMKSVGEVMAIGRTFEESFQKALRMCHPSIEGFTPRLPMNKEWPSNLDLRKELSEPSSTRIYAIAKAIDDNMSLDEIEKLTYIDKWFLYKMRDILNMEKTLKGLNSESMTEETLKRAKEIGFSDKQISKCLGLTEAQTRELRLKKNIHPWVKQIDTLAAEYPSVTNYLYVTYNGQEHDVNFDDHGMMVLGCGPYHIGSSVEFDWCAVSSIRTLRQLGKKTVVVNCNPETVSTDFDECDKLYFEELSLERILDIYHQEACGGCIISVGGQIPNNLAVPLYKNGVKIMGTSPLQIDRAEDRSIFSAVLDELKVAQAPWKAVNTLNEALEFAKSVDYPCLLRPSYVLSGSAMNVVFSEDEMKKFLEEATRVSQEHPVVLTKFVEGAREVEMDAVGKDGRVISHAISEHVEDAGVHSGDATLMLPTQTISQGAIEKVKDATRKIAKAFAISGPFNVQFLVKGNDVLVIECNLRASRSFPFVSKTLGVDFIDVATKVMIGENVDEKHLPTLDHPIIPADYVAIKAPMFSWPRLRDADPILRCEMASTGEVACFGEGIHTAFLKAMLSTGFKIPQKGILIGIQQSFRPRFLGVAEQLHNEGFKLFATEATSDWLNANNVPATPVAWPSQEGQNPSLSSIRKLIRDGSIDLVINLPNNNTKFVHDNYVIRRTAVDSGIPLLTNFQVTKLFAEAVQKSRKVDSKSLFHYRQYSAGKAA
Assay: ADP-Glo endpoint assay measuring the ATPase activity of CPS1
Assay type: biochemical
Details: geometric mean of a minimum of two values; 50 nM CPS1, 10 μM ATP, 0.2 mM NAG, 60 min at room temperature; read-out: ADPGlo IC50
In short: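 Full-length human His-tagged CPS1 from SF21 insect cells, 50 nM, preincubated 20 min with compound in pH 7.0 HEPES buffer containing KHCO3, (NH4)2SO3, MgCl2 and 0.2 mM NAG. Reaction started with 10 μM ATP, 60 min at room temperature; ADP formed detected by ADP-Glo luminescence.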

Structure (SMILES)	IC50 [µM]
COc1ccc(C(=O)N2C[C@@H](C)N(C(=O)c3ccc(S(C)(=O)=O)cc3F)[C@H](C)C2)c(F)c1 [Compound 76, ((3R,5R)-4-(2-fluoro-4-(methylsulfonyl)benzoyl)-3,5-dimethylpiperazin-1-yl)(2-fluoro-4-methoxyphenyl)methanone]	16.7
COc1ccc(C(=O)N2[C@H](C)CN(C(=O)c3c[nH]c4ccccc34)C[C@H]2C)c(F)c1 [Compound 77, ((2R,6R)-4-(1H-indole-3-carbonyl)-2,6-dimethylpiperazin-1-yl)(2-fluoro-4-methoxyphenyl)methanone]	18.9
COc1ccc(C(=O)N2[C@H](C)CN(C(=O)Cc3c(C)[nH]c4ccccc34)C[C@H]2C)c(F)c1 [Compound 78, 1-((3R,5R)-4-(2-fluoro-4-methoxybenzoyl)-3,5-dimethylpiperazin-1-yl)-2-(2-methyl-1H-indol-3-yl)ethanone]	19.2
COc1ccc(C(=O)N2C[C@@H](C)N(C(=O)c3ccc(OC)c(C)c3)[C@H](C)C2)c(F)c1 [Compound 79, ((2R,6R)-4-(2-fluoro-4-methoxybenzoyl)-2,6-dimethylpiperazin-1-yl)(4-methoxy-3-methylphenyl)methanone]	22.2
COc1ccc(C(=O)N2C[C@@H](C)N(C(=O)c3ccc(-c4ccn(C)n4)cc3)[C@H](C)C2)c(F)c1 [Compound 80, ((3R,5R)-3,5-dimethyl-4-(4-(1-methyl-1H-pyrazol-3-yl)benzoyl)piperazin-1-yl)(2-fluoro-4-methoxyphenyl)methanone]	22.9
COc1ccc(C(=O)N2[C@H](C)CN(C(=O)c3c(C)cc(OC)cc3F)C[C@H]2C)c(F)c1 [Compound 81, ((2R,6R)-4-(2-fluoro-4-methoxy-6-methylbenzoyl)-2,6-dimethylpiperazin-1-yl)(2-fluoro-4-methoxyphenyl)methanone]	25.8
COc1ccc(C(=O)N2[C@H](C)CN(C(=O)c3cc4c(OC)ccc(OC)c4[nH]3)C[C@H]2C)c(F)c1 [Compound 82, (4,7-dimethoxy-1H-indol-2-yl)((3R,5R)-4-(2-fluoro-4-methoxybenzoyl)-3,5-dimethylpiperazin-1-yl)methanone]	26.4
COc1ccc(C(=O)N2[C@H](C)CN(C(=O)c3ccc4ccn(C)c4c3)C[C@H]2C)c(F)c1 [Compound 83, ((2R,6R)-2,6-dimethyl-4-(1-methyl-1H-indole-6-carbonyl)piperazin-1-yl)(2-fluoro-4-methoxyphenyl)methanone]	31
COc1ccc(OC)c2[nH]c(C(=O)N3[C@H](C)CN(C(=O)Cc4cc5ccccc5[nH]4)C[C@H]3C)cc12 [Compound 84, 1-((3R,5R)-4-(4,7-dimethoxy-1H-indole-2-carbonyl)-3,5-dimethylpiperazin-1-yl)-2-(1H-indol-2-yl)ethanone]	32.1
COc1ccc(C(=O)N2C[C@@H](C)N(C(=O)c3cccc(O)c3)[C@H](C)C2)c(F)c1 [Compound 85, ((2R,6R)-4-(2-fluoro-4-methoxybenzoyl)-2,6-dimethylpiperazin-1-yl)(3-hydroxyphenyl)methanone]	34.1
COc1ccc(C(=O)N2CCN(C(=O)c3ccc(OC)cc3F)C(C)C2C)c(F)c1 (stereo not drawn) [Compound 86, (2,3-dimethylpiperazine-1,4-diyl)bis((2-fluoro-4-methoxyphenyl)methanone)]	36.1
COc1ccc(C(=O)N2[C@H](C)CN(C(=O)c3c[nH]c4ccc(F)cc34)C[C@H]2C)c(F)c1 [Compound 87, (5-fluoro-1H-indol-3-yl)((3R,5R)-4-(2-fluoro-4-methoxybenzoyl)-3,5-dimethylpiperazin-1-yl)methanone]	37.7
COc1ccc(C(=O)N2[C@H](C)CN(C(=O)Cc3n[nH]c4ccccc34)C[C@H]2C)c(F)c1 [Compound 88, 1-((3R,5R)-4-(2-fluoro-4-methoxybenzoyl)-3,5-dimethylpiperazin-1-yl)-2-(1H-indazol-3-yl)ethanone]	38.2
COc1ccc(C(=O)N2[C@H](C)CN(C(=O)Cc3c[nH]c4cccnc34)C[C@H]2C)c(F)c1 [Compound 89, 1-((3R,5R)-4-(2-fluoro-4-methoxybenzoyl)-3,5-dimethylpiperazin-1-yl)-2-(1H-pyrrolo[3,2-b]pyridin-3-yl)ethanone]	42.7
COc1ccc(C(=O)N2C[C@@H](C)N(C(=O)c3ccc(-c4nnn[nH]4)cc3)[C@H](C)C2)c(F)c1 [Compound 90, ((3R,5R)-4-(4-(1H-tetrazol-5-yl)benzoyl)-3,5-dimethylpiperazin-1-yl)(2-fluoro-4-methoxyphenyl)methanone]	45

Stronger by IC50, values ahead:

IC50 [µM]	Structure (SMILES)
3.72	COc1ccc(OC)c2[nH]c(C(=O)N3CCN(C(=O)Cc4c[nH]c5ccccc45)CC3)cc12 [Compound 64, 1-(4-(4,7-dimethoxy-1H-indole-2-carbonyl)piperazin-1-yl)-2-(1H-indol-3-yl)ethanone]
3.79	COc1ccc(C(=O)N2[C@H](C)CN(C(=O)c3ccc(O)cc3F)C[C@H]2C)c(F)c1 [Compound 65, ((2R,6R)-4-(2-fluoro-4-hydroxybenzoyl)-2,6-dimethylpiperzin-1-yl)(2-fluoro-4-methoxyphenyl)methanone]
4.91	COc1ccc(C(=O)N2C[C@@H](C)N(C(=O)c3ccc(Cl)cc3F)[C@H](C)C2)c(F)c1 [Compound 66, ((3R,5R)-4-(4-chloro-2-fluorobenzoyl)-3,5-dimethylpiperazin-1-yl)(2-fluoro-4-methoxyphenyl)methanone]
5.15	COc1ccc(C(=O)N2C[C@@H](C)N(C(=O)c3cc(OC)ccc3F)[C@H](C)C2)c(F)c1 [Compound 67, ((2R,6R)-4-(2-fluoro-4-methoxybenzoyl)-2,6-dimethylpiperazin-1-yl)(2-fluoro-5-methoxyphenyl)methanone]
6.34	COc1ccc(C(=O)N2CC(C)N(C(=O)c3ccc(OC)cc3F)C(C)C2)c(F)c1 (stereo not drawn) [Compound 68, (2,6-dimethylpiperazine-1,4-diyl)bis((2-fluoro-4-methoxyphenyl)methanone)]
6.43	COc1ccc(C(=O)N2[C@H](C)CN(C(=O)c3ccc4c(c3)NCC4)C[C@H]2C)c(F)c1 [Compound 69, ((3R,5R)-4-(2-fluoro-4-methoxybenzoyl)-3,5-dimethylpiperazin-1-yl)(indolin-6-yl)methanone]
8.71	COc1ccc(C(=O)N2C[C@@H](C)N(C(=O)c3ccc(C)c(O)c3)[C@H](C)C2)c(F)c1 [Compound 70]
9.97	COc1ccc(C(=O)N2CC(C)N(C(=O)c3ccc(OC)cc3F)CC2C)c(F)c1 (stereo not drawn) [Compound 71]
11.5	COc1ccc(C(=O)N2[C@H](C)CN(C(=O)c3ccc(OC)c(O)c3)C[C@H]2C)c(F)c1 [Compound 72, ((3R,5R)-4-(2-fluoro-4-methoxybenzoyl)-3,5-dimethylpiperazin-1-yl)(3-hydroxy-4-methoxyphenyl)methanone]
11.6	COc1ccc(C(=O)N2C[C@@H](C)N(C(=O)c3ccc4cc[nH]c4c3F)[C@H](C)C2)c(F)c1 [Compound 73, (7-fluoro-1H-indol-6-yl)((2R,6R)-4-(2-fluoro-4-methoxybenzoyl)-2,6-dimethylpiperazin-1-yl)methanone]
15.8	COc1ccc(C(=O)N2C[C@@H](C)N(C(=O)c3ccc4c(c3)CCCO4)[C@H](C)C2)c(F)c1 [Compound 74, ((3R,5R)-4-(chroman-6-carbonyl)-3,5-dimethylpiperazin-1-yl)(2-fluoro-4-methoxyphenyl)methanone]
16.1	COc1ccc(C(=O)N2C[C@@H](C)N(C(=O)c3cccc(O)c3F)[C@H](C)C2)c(F)c1 [Compound 75, ((3R,5R)-4-(2-fluoro-3-hydroxybenzoyl)-3,5-dimethylpiperazin-1-yl)(2-fluoro-4-methoxyphenyl)methanone]
